Assay results published in ChEMBL document CHEMBL2396558, “Orthogonal chemistry for the synthesis of thiocoraline-triostin hybrids. Exploring their structure-activity relationship” (2013).
Positions of bridges follow the written chain, without caps; N, C: chain ends. Non-standard residues stand in square brackets, D forms with d. Residues, ends and D or L forms follow the SMILES beside them. Chains are numbered I, II in the order given. *: point of attachment. Quinoxaline2carbonyl = O=C(c1cnc2ccccc2n1)*; NMeV = CN[C@H](C(=O)O)C(C)C; NMeC = CN[C@@H](CS)C(=O)O

What was measured:
Format in all cases: functional
[1] = system: A549; assay: Cytotoxicity against human A549 cells after 72 hrs by sulforhodamine B assay; conditions: A549, 72 h; for CC50: read-out: LC50 (the source's name)
[2] = system: HT-29; assay: Cytotoxicity against human HT-29 cells after 72 hrs by sulforhodamine B assay; conditions: HT-29, 72 h; for CC50: read-out: LC50 (the source's name)
[3] = system: MDA-MB-231; assay: Cytotoxicity against human MDA-MB-231 cells after 72 hrs by sulforhodamine B assay; conditions: MDA-MB-231, 72 h

Q: For `CSC[C@H]1C(=O)OC[C@@H](NC(=O)c2nc3ccccc3cc2O)C(=O)NCC(=O)N(C)[C@H]2CSSC[C@@H](C(=O)N1C)N(C)C(=O)CNC(=O)[C@H](NC(=O)c1nc3ccccc3cc1O)COC(=O)[C@H](CSC)N(C)C2=O`, which GI50 [1] is on record?
A: Its GI50 is 0.311 µM.

Q: And the TGI [1]?
A: Its TGI is 2.75 µM.

Q: And the CC50 [1]?
A: Its CC50 is 7.91 µM.

Q: What about the GI50 [2] of the same compound?
A: Its GI50 is 0.4 µM.

Q: And the TGI [2]?
A: Its TGI is 3.55 µM.

Q: What about the CC50 [2] of the same compound?
A: Its CC50 is 7.55 µM.

Q: And the GI50 [3]?
A: The GI50 was 0.462 µM.

Q: What about the LC50 (concentration killing 50% of cells) [3] of the same compound?
A: Its LC50 (concentration killing 50% of cells) is 6.4 µM.

Q: What about the TGI [3] of the same compound?
A: Its TGI is 2.75 µM.

Q: Which GI50 [1] does the source give for `CN1C[C@@H](NC(=O)c2nc3ccccc3cc2O)C(=O)NCC(=O)N(C)[C@H]2CSSC[C@@H](C(=O)N(C)[C@@H](CCN)C1=O)N(C)C(=O)CNC(=O)[C@H](NC(=O)c1nc3ccccc3cc1O)CN(C)C(=O)[C@H](CCN)N(C)C2=O` here?
A: Its GI50 is 8.95 µM.

Q: And the TGI [1]?
A: The TGI was 8.95 µM.

Q: What about the CC50 [1] of the same compound?
A: The CC50 was 8.95 µM.

Q: What about the GI50 [2] of the same compound?
A: Its GI50 is 8.95 µM.

Q: And the TGI [2]?
A: The TGI was 8.95 µM.

Q: And the CC50 [2]?
A: The CC50 was 8.95 µM.

Q: What about the GI50 [3] of the same compound?
A: Its GI50 is 8.95 µM.

Q: And the LC50 (concentration killing 50% of cells) [3]?
A: Its LC50 (concentration killing 50% of cells) is 8.95 µM.

Q: What about the TGI [3] of the same compound?
A: Its TGI is 8.95 µM.

Q: For `CSC[C@H]1C(=O)N(C)C[C@@H](NC(=O)c2cnc3ccccc3n2)C(=O)NCC(=O)N(C)[C@H]2CSSC[C@@H](C(=O)N1C)N(C)C(=O)CNC(=O)[C@H](NC(=O)c1cnc3ccccc3n1)CN(C)C(=O)[C@H](CSC)N(C)C2=O`, which GI50 [1] is on record?
A: Its GI50 is 0.0713 µM.

Q: What about the TGI [1] of the same compound?
A: Its TGI is over 8.92 µM.

Q: And the CC50 [1]?
A: The CC50 was over 8.92 µM.

Q: What about the GI50 [2] of the same compound?
A: The GI50 was 0.357 µM.

Q: And the TGI [2]?
A: Its TGI is over 8.92 µM.

Q: What about the CC50 [2] of the same compound?
A: Its CC50 is over 8.92 µM.

Q: What about the GI50 [3] of the same compound?
A: Its GI50 is 0.0473 µM.

Q: And the LC50 (concentration killing 50% of cells) [3]?
A: Its LC50 (concentration killing 50% of cells) is over 8.92 µM.

Q: What about the TGI [3] of the same compound?
A: Its TGI is 1.43 µM.

Q: `COCCOCCOCC(=O)NC[C@H]1C(=O)N(C)C[C@@H](NC(=O)c2nc3ccccc3cc2O)C(=O)NCC(=O)N(C)[C@H]2CSSC[C@@H](C(=O)N1C)N(C)C(=O)CNC(=O)[C@H](NC(=O)c1nc3ccccc3cc1O)CN(C)C(=O)[C@H](CNC(=O)COCCOCCOC)N(C)C2=O` was tested. Which GI50 [1] did it give?
A: Its GI50 is over 7.09 µM.

Q: What about the TGI [1] of the same compound?
A: The TGI was over 7.09 µM.

Q: And the CC50 [1]?
A: The CC50 was over 7.09 µM.

Q: What about the GI50 [2] of the same compound?
A: Its GI50 is over 7.09 µM.

Q: And the TGI [2]?
A: The TGI was over 7.09 µM.

Q: What about the CC50 [2] of the same compound?
A: Its CC50 is over 7.09 µM.

Q: What about the GI50 [3] of the same compound?
A: Its GI50 is over 7.09 µM.

Q: What about the LC50 (concentration killing 50% of cells) [3] of the same compound?
A: Its LC50 (concentration killing 50% of cells) is over 7.09 µM.

Q: And the TGI [3]?
A: The TGI was over 7.09 µM.

Q: Which GI50 [1] does the source give for `CC(C)[C@H]1C(=O)OC[C@@H](NC(=O)c2cnc3ccccc3n2)C(=O)N[C@@H](C)C(=O)N(C)[C@H]2CSSC[C@@H](C(=O)N1C)N(C)C(=O)[C@H](C)NC(=O)[C@H](NC(=O)c1cnc3ccccc3n1)COC(=O)[C@H](C(C)C)N(C)C2=O` [TRIOSTIN] (I: Quinoxaline2carbonyl-[dS]A[NMeC][NMeV] / II: Quinoxaline2carbonyl-[dS]A[NMeC][NMeV]; ester I:1-II:C, I:C-II:1; disulfide I:3-II:3) here?
A: The GI50 was 0.34 µM.

Q: What about the TGI [1] of the same compound?
A: The TGI was 1.66 µM.

Q: And the CC50 [1]?
A: The CC50 was over 9.2 µM.

Q: And the GI50 [2]?
A: Its GI50 is 0.23 µM.

Q: What about the TGI [2] of the same compound?
A: Its TGI is 2.85 µM.

Q: What about the CC50 [2] of the same compound?
A: The CC50 was over 9.2 µM.

Q: And the GI50 [3]?
A: Its GI50 is 0.202 µM.

Q: And the LC50 (concentration killing 50% of cells) [3]?
A: The LC50 (concentration killing 50% of cells) was 1.56 µM.

Q: What about the TGI [3] of the same compound?
A: The TGI was 0.515 µM.

Q: Which GI50 [1] does the source give for `COCCOCCOCC(=O)NCC[C@H]1C(=O)N(C)C[C@@H](NC(=O)c2nc3ccccc3cc2O)C(=O)NCC(=O)N(C)[C@H]2CSSC[C@@H](C(=O)N1C)N(C)C(=O)CNC(=O)[C@H](NC(=O)c1nc3ccccc3cc1O)CN(C)C(=O)[C@H](CCNC(=O)COCCOCCOC)N(C)C2=O` here?
A: The GI50 was over 6.96 µM.

Q: What about the TGI [1] of the same compound?
A: The TGI was over 6.96 µM.

Q: And the CC50 [1]?
A: The CC50 was over 6.96 µM.

Q: And the GI50 [2]?
A: Its GI50 is over 6.96 µM.

Q: And the TGI [2]?
A: The TGI was over 6.96 µM.

Q: And the CC50 [2]?
A: The CC50 was over 6.96 µM.

Q: And the GI50 [3]?
A: Its GI50 is over 6.96 µM.

Q: And the LC50 (concentration killing 50% of cells) [3]?
A: The LC50 (concentration killing 50% of cells) was over 6.96 µM.

Q: And the TGI [3]?
A: Its TGI is over 6.96 µM.

Q: Which results are given for `CC(C)[C@H]1C(=O)OC[C@@H](NC(=O)c2nc3ccccc3cc2O)C(=O)N[C@@H](C)C(=O)N(C)[C@H]2CSSC[C@@H](C(=O)N1C)N(C)C(=O)[C@H](C)NC(=O)[C@H](NC(=O)c1nc3ccccc3cc1O)COC(=O)[C@H](C(C)C)N(C)C2=O`?
A: GI50 [1]: > 8.92 µM; TGI [1]: > 8.92 µM; CC50 [1]: > 8.92 µM; GI50 [2]: > 8.92 µM; TGI [2]: > 8.92 µM; CC50 [2]: > 8.92 µM; GI50 [3]: > 8.92 µM; LC50 (concentration killing 50% of cells) [3]: > 8.92 µM; TGI [3]: > 8.92 µM

Q: For `CN1C[C@@H](NC(=O)c2nc3ccccc3cc2O)C(=O)NCC(=O)N(C)[C@H]2CSSC[C@@H](C(=O)N(C)[C@@H](CN)C1=O)N(C)C(=O)CNC(=O)[C@H](NC(=O)c1nc3ccccc3cc1O)CN(C)C(=O)[C@H](CN)N(C)C2=O`, which GI50 [1] is on record?
A: Its GI50 is 8.95 µM.

Q: And the TGI [1]?
A: Its TGI is 8.95 µM.

Q: What about the CC50 [1] of the same compound?
A: Its CC50 is 8.95 µM.

Q: And the GI50 [2]?
A: The GI50 was 8.95 µM.

Q: And the TGI [2]?
A: Its TGI is 8.95 µM.

Q: And the CC50 [2]?
A: Its CC50 is 8.95 µM.

Q: And the GI50 [3]?
A: The GI50 was 8.95 µM.

Q: What about the LC50 (concentration killing 50% of cells) [3] of the same compound?
A: Its LC50 (concentration killing 50% of cells) is 8.95 µM.

Q: What about the TGI [3] of the same compound?
A: The TGI was 8.95 µM.

Q: `CSC[C@H]1C(=O)N(C)C[C@@H](NC(=O)c2nc3ccccc3cc2O)C(=O)NCC(=O)N(C)[C@H]2CSSC[C@@H](C(=O)N1C)N(C)C(=O)CNC(=O)[C@H](NC(=O)c1nc3ccccc3cc1O)CN(C)C(=O)[C@H](CSC)N(C)C2=O` was tested. Which GI50 [1] did it give?
A: The GI50 was 0.00339 µM.

Q: What about the TGI [1] of the same compound?
A: The TGI was 0.02 µM.

Q: And the CC50 [1]?
A: Its CC50 is 0.165 µM.

Q: What about the CC50 [2] of the same compound?
A: Its CC50 is 0.747 µM.

Q: And the GI50 [3]?
A: Its GI50 is 0.00408 µM.

Q: And the LC50 (concentration killing 50% of cells) [3]?
A: The LC50 (concentration killing 50% of cells) was 0.373 µM.

Q: What about the TGI [3] of the same compound?
A: Its TGI is 0.0426 µM.

Q: `CSC[C@H]1C(=O)SC[C@@H](NC(=O)c2nc3ccccc3cc2O)C(=O)NCC(=O)N(C)[C@H]2SSC[C@@H](C(=O)N1C)N(C)C(=O)CNC(=O)[C@H](NC(=O)c1nc3ccccc3cc1O)CSC(=O)[C@H](CSC)N(C)C2=O` [THIOCORALINE] was tested. Which GI50 [1] did it give?
A: Its GI50 is 0.00622 µM.

Q: What about the TGI [1] of the same compound?
A: Its TGI is 0.0242 µM.

Q: And the CC50 [1]?
A: The CC50 was 0.095 µM.

Q: And the CC50 [2]?
A: The CC50 was 0.138 µM.

Q: And the GI50 [3]?
A: The GI50 was 0.00207 µM.

Q: What about the LC50 (concentration killing 50% of cells) [3] of the same compound?
A: The LC50 (concentration killing 50% of cells) was 0.0346 µM.

Q: What about the TGI [3] of the same compound?
A: The TGI was 0.0095 µM.

Q: What does the source list for `CC(C)[C@H]1C(=O)N(C)C[C@@H](NC(=O)c2cnc3ccccc3n2)C(=O)N[C@@H](C)C(=O)N(C)[C@H]2CSSC[C@@H](C(=O)N1C)N(C)C(=O)[C@H](C)NC(=O)[C@H](NC(=O)c1cnc3ccccc3n1)CN(C)C(=O)[C@H](C(C)C)N(C)C2=O`?
A: GI50 [1]: > 8.98 µM; TGI [1]: > 8.98 µM; CC50 [1]: > 8.98 µM; GI50 [2]: 8.44 µM; TGI [2]: > 8.98 µM; CC50 [2]: > 8.98 µM; GI50 [3]: 5.93 µM; LC50 (concentration killing 50% of cells) [3]: > 8.98 µM; TGI [3]: > 8.98 µM
